Source: paper PMC8480901 (PLoS ONE, 2021)
Values joined by “and” are separate entries in the source; they are usually repeats but may differ in a detail not shown here. Equal values may be shown once. Read-outs that look alike come from different tables or passages of the source.

Legend:
[1] = Pharmacokinetics in plasma and epithelial lining fluid of mice after a single SC dose; type: in vivo, BALB/c mice; conditions: mice; for AUC(0-t): read-out: AUC0-24h, mean±SEM; for Cmax: read-out: Cmax, mean±SEM
Description: Pharmacokinetic parameters were evaluated as previously described. […] Plasma samples were analyzed by liquid chromatography with […] mass spectrometry (Q Exactive Plus; Thermo Fisher Scientific).
Area under the curve (AUC) values were determined using the linear trapezoidal method.

[2] = system: J774.2 mouse macrophages; assay: Cytotoxicity in J774.2 mouse macrophages (adenylate kinase release, ToxiLight); type: cell-based; conditions: J774.2 cells; 100 μM
Description: (§1) The effect of t est compounds on cell viabilit y of J 774.2 macrophages and human PBMCs […]
(§2) was determined b y comp aring th e aden yl ate kinas e signal obtain ed in the p resence of diff er ent concentrations of compounds with those obtained in DMSO (vehicle) control. Signals were […]
(§3) divided,and the results were ex pressed as fold-change versus v ehicle con trol .

[3] = system: human PBMCs; assay: Cytotoxicity in human PBMCs (adenylate kinase release, ToxiLight); type: cell-based; conditions: PBMCs; ≤100 μM
Description: as §1, §2, §3

[4] = system: IL-8–activated human neutrophils; assay: Chemotaxis of IL-8–activated human neutrophils (transwell, CellTiter Glo); type: cell-based; conditions: for Neutrophilic chemotaxis, RLU, Mean / Neutrophilic chemotaxis: % reduction / Neutrophilic chemotaxis, RLU, single replicates: IL-8; for Neutrophilic chemotaxis, RLU, single replicates: listed as Azi
Description: Buffy coat (blood sample fraction comprising white blood cells and platelets) from whole blood was obtained from a healthy adult volunteer at the Croatian Institute of Transfusion Medicine (CITM; Zagreb, Croatia). The CITM ethics committee approved the blood collection process, and the volunteer provided written informed consent prior to blood collection. Neutrophils were isolated from the buffy coat, an aliquot of which was used for cell counting via hematologic analyzer (X500i; Sysmex). […] The diluted buffy coat was drawn into sterile 50-mL syringes and incubated for 30 minutes at RT. Following incubation, the upper layer of leukocyte-rich plasma (35 mL) was decanted into a new sterile 50-mL conical centrifuge tube, carefully layered onto 15 mL of Lymphoprep (Axis-Shield Diagnostics, Ltd., Dundee, UK) and centrifuged at 400×g (brake turned off) for 35 minutes at RT. The supernatant and mononuclear ring were discarded, and the pellet was resuspended in 10 mL of cold sterile MilliQ water. […] Resuspended neutrophils were counted via Sysmex X500i hematologic analyzer.
All test compounds were reconstituted in DMSO (Sigma-Aldrich Chemie GmbH) to 100-mM stock concentrations, taking into consideration and correcting for salt and purity. A 30-mM stock solution of reference compound Sch527123 (MedChemExpress, Monmouth Junction, NJ, USA) was diluted to 10 mM with DMSO.
DMSO was used as vehicle. […] The reference compound was tested at concentrations of 0.003, 0.01, 0.03, 0.1, 0.3, 1, 3, and 10 μM. All compounds were tested in triplicate, and the final DMSO concentration was 0.1% per well.
Test and reference compound working solutions were then added (20 μL/well) for a 10-fold dilution to final testing concentrations. Compounds and cells were mixed by gentle pipetting, and the plate was pre-incubated for 30 minutes at RT with gentle mixing by pipetting.
Negative control wells received 180 μL of migration medium alone. To all wells, 20 μL of compound working solutions or DMSO vehicle was added. Once pre-incubation of cells with compounds was complete, the transwell inserts were carefully placed on the receiver plate, with caution to avoid air bubble formation, which could prevent cell migration. To the upper wells, 75 μL of cell suspension (375,000 cells/well) was added, taking care not to tear the membrane with pipette tips.
After incubation, the number of cells that migrated to the lower wells was quantified by removing the Transwell insert and adding 200 μL of CellTiter Glo reagent (CellTiter-Glo Luminescent Cell Viability Assay, Promega, Madison, WI, USA) to each lower well to quantify the amount of adenosine triphosphate (ATP) present, signaling the presence of metabolically active cells. The plate was incubated for 10 minutes in the dark at RT, followed by transferring 150 μL of solution into wells of a white 96-well plate (Lumitrac 200; Greiner Bio-One International GmbH, Kremsmunster, Austria).
For the chemotaxis and cytotoxicity evaluations, average relative light unit values were calculated from all untreated vehicle samples and, for each sample, percentage of vehicle value was calculated. The tested compound was considered cytotoxic if reduction from untreated vehicle was ≥20%.

[5] = system: LPS-induced acute lung injury; conditions: pretreatment in LPS-induced acute lung injury models; cited from earlier work
[6] = female, BALB/c, mouse, epithelial lining fluid (ELF), ELF, single 35 mg/kg SC
[7] = female, BALB/c, mouse, plasma, single 35 mg/kg SC

## CC[C@H]1OC(=O)[C@H](C)[C@@H](O[C@H]2C[C@@](C)(OC)[C@@H](O)[C@H](C)O2)[C@H](C)[C@@H](O[C@@H]2O[C@H](C)C[C@H](N(C)C)[C@H]2O)[C@](C)(O)C[C@@H](C)CN(C)[C@H](C)[C@@H](O)[C@]1(C)O [Azithromycin]
[1]; ELF, single 35 mg/kg SC
  AUC0-24h/Dose, mean: 0.76 (μg∙h/mL)/(mg/kg)
[1]; female, BALB/c, mouse, epithelial lining fluid (ELF) / plasma, single 35 mg/kg SC, read-out: AUC ratio for ELF to plasma
  Kp: ~2
[1]; [6]
  Tmax: 15 min
  AUC(0-t): 26700 ± 5780 ng·h/mL
  Cmax: 2350 ± 1450 ng/mL
[1]; [7]
  Tmax: 4.8 min
  AUC(0-t): 11600 ± 1370 ng·h/mL
  Cmax: 2330 ± 830 ng/mL
[1]; single SC dose 35 mg/kg
  distribution from plasma to ELF (penetration into the lung compartment): rapid penetration
[1]; plasma, single 35 mg/kg SC
  AUC0-24h/Dose, mean: 0.33 (μg∙h/mL)/(mg/kg)
[2]
  cell viability: reduced
[3]
  cytotoxic effects: no cytotoxic effects
[4]; 0.03 to 30 μM
  IL-8–induced chemotaxis of human neutrophils: no effect
[4]; 0.03 µM
  Neutrophilic chemotaxis, RLU, Mean: 121773 RLU
  Neutrophilic chemotaxis: % reduction: 10%
  Neutrophilic chemotaxis, RLU, single replicates: 113920 RLU and 126240 RLU
[4]; 0.1 µM
  Neutrophilic chemotaxis, RLU, Mean: 122140 RLU
  Neutrophilic chemotaxis: % reduction: 9%
  Neutrophilic chemotaxis, RLU, single replicates: 121960 RLU and 122320 RLU
[4]; 0.3 µM
  Neutrophilic chemotaxis, RLU, Mean: 131533 RLU
  Neutrophilic chemotaxis, RLU, single replicates: 126760 RLU and 132240 RLU and 135600 RLU
[4]; 1 µM
  Neutrophilic chemotaxis, RLU, Mean: 117320 RLU
  Neutrophilic chemotaxis: % reduction: 13%
  Neutrophilic chemotaxis, RLU, single replicates: 120320 RLU and 118720 RLU and 112920 RLU
[4]; 3 µM
  Neutrophilic chemotaxis, RLU, Mean: 121787 RLU
  Neutrophilic chemotaxis: % reduction: 9.51%
  Neutrophilic chemotaxis, RLU, single replicates: 127280 RLU and 119280 RLU and 118800 RLU
[4]; 10 µM
  Neutrophilic chemotaxis, RLU, Mean: 120227 RLU
  Neutrophilic chemotaxis: % reduction: 11%
  Neutrophilic chemotaxis, RLU, single replicates: 119960 RLU and 123240 RLU and 117480 RLU
[4]; 30 µM
  Neutrophilic chemotaxis, RLU, Mean: 136440 RLU
  Neutrophilic chemotaxis: % reduction: -3%
  Neutrophilic chemotaxis, RLU, single replicates: 143280 RLU and 148320 RLU and 117720 RLU
[4]; 100 µM
  Neutrophilic chemotaxis, RLU, Mean: 142040 RLU
  Neutrophilic chemotaxis: % reduction: -8%
  Neutrophilic chemotaxis, RLU, single replicates: 140160 RLU and 151960 RLU and 134000 RLU
[5]
  neutrophil recruitment: significantly reduced
